Active and inactive are the calls of the source. No cut-off for these calls is given here.

The results in this text go back to ChEMBL document CHEMBL1159170 (Bioorg Med Chem Lett, 1995).

For test [1], the system named is Canis familiaris. Nature of the test: Blockade of dog renal artery dilation by the […] was measured after intravenous administration of 0.05-0.1 mg/kg. The format is functional, Canis lupus familiaris.
In test [2] the test system is Canis familiaris. Nature of the test: Blockade of dog femoral artery dilation by the D-2 antagonist domperidone was measured after intravenous administration of […]. The format is functional, Canis lupus familiaris.
Test [3] deals with Canis familiaris. Nature of the test: Ability to induce dilation of dog femoral artery when administered intravenously; Values is potency versus DPDA. The test is classed as functional, Canis lupus familiaris.
For test [4], the system named is Canis familiaris. Kind of test: Ability to induce dilation of dog renal artery when administered intravenously; Values is potency versus DPDA. The format is functional, Canis lupus familiaris.
The target in test [5] is T1, Adrenergic receptor alpha-1 (Homo sapiens, UniProt P35348+P25100+P35368).
T1 sequence (P35348 whole entry): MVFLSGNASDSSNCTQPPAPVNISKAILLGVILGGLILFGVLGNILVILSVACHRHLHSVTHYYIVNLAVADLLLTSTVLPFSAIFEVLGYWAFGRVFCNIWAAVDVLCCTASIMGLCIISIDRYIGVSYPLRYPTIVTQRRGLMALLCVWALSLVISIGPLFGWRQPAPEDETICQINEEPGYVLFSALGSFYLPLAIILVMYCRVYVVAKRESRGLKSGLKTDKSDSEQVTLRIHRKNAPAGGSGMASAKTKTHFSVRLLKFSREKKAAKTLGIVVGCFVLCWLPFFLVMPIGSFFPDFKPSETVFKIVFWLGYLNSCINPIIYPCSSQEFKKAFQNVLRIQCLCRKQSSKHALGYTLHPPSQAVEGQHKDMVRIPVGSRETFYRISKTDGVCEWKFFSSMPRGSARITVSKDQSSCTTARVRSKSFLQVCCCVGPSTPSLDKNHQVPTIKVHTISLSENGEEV
T1 sequence (P25100 whole entry): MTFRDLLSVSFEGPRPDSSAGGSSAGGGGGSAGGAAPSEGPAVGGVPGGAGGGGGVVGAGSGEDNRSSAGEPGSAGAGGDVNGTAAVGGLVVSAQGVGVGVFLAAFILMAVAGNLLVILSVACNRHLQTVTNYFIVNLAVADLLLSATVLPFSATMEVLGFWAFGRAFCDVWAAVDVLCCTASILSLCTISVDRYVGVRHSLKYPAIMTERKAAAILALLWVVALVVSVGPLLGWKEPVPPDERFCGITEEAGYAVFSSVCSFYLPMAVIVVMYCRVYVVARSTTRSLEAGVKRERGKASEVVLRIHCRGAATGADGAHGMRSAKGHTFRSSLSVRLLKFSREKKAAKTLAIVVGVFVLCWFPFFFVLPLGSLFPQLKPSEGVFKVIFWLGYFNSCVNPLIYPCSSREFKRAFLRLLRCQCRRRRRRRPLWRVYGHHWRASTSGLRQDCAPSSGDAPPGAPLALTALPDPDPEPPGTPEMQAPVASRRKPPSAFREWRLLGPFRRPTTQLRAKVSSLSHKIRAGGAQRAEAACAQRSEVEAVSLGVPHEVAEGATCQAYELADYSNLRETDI
T1 sequence (P35368 whole entry): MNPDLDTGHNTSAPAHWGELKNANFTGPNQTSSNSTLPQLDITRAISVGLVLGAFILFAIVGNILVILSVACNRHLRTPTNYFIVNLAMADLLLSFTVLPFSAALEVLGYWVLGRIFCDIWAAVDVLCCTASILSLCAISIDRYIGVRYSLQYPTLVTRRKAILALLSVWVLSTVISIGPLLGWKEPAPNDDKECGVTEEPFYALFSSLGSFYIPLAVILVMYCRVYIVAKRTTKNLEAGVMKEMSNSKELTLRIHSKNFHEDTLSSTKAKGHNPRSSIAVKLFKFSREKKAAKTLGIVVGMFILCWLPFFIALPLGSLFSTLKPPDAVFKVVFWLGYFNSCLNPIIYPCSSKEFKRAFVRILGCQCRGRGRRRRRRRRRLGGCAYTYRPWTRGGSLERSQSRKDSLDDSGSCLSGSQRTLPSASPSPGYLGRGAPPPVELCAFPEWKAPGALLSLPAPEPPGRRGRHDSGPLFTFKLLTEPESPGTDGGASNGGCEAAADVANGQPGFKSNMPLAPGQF
Nature of the test: Compound was tested for its binding affinity against Alpha-1 adrenergic receptor. The format is protein assay.

A further test concerns the target D(1A) dopamine receptor (Rattus norvegicus, UniProt P18901). Nature of the test: Binding affinity against Dopamine receptor D1 in rat striatal membranes using [3H]SCH-23390. The test is classed as cell membranes, Striatum, Membrane.
The target of test [6] is Beta-1 adrenergic receptor (Homo sapiens) (UniProt P08588). Kind of test: Compound was tested for its binding affinity against Beta-1 adrenergic receptor; IA is Inactive.
The next test has as its target D(2) dopamine receptor (Rattus norvegicus, UniProt P61169). Kind of test: Binding affinity against Dopamine receptor D2 in rat striatal membranes using [3H]spiperone. The test is classed as cell membranes, Striatum, Membrane.
Test [7] addresses Beta-2 adrenergic receptor (Homo sapiens) (UniProt P07550). Nature of the test: Compound was tested for its binding affinity against beta-2 adrenoceptor; IA is Inactive.
In test [8] the test system is Rattus norvegicus. Kind of test: Compound was tested for urine flow in conscious spontaneously hypertensive rats after peroral administration of 30 mg/kg. The test is classed as functional. The note with it: route oral.
Test [9] deals with Rattus norvegicus. Nature of the test: Compound was tested for mean blood pressure effect in conscious spontaneously hypertensive rats after peroral administration of 30 mg/kg. The note with it: route oral. The format is functional.

Sequence of D(1A) dopamine receptor (P18901 whole entry): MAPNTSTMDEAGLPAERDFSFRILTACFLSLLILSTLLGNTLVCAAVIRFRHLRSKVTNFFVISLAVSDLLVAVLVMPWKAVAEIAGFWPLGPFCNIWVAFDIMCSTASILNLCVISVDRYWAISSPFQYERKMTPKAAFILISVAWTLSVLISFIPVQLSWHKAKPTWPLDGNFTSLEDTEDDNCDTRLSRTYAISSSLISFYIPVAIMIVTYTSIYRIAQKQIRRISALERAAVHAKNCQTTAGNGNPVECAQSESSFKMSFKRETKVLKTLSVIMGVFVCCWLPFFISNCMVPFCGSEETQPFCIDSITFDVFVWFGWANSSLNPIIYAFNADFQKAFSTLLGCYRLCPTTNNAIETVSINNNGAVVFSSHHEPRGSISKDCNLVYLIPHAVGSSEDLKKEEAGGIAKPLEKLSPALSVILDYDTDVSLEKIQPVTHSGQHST
Sequence of Beta-1 adrenergic receptor (Homo sapiens) (P08588 whole entry, looked up): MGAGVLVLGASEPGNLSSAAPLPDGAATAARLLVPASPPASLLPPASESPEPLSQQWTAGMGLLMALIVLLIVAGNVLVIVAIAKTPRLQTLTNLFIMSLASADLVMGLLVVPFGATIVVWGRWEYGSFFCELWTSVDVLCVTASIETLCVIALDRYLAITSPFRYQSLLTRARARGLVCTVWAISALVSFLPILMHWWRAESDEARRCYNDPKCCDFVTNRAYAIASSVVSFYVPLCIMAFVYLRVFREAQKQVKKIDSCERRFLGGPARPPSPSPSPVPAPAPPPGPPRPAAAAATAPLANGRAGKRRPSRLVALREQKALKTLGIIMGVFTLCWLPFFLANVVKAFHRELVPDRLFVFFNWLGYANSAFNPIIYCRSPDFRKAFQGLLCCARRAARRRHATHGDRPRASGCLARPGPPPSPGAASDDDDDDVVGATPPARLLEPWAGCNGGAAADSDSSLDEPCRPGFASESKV
Sequence of Beta-2 adrenergic receptor (Homo sapiens) (P07550 whole entry, looked up): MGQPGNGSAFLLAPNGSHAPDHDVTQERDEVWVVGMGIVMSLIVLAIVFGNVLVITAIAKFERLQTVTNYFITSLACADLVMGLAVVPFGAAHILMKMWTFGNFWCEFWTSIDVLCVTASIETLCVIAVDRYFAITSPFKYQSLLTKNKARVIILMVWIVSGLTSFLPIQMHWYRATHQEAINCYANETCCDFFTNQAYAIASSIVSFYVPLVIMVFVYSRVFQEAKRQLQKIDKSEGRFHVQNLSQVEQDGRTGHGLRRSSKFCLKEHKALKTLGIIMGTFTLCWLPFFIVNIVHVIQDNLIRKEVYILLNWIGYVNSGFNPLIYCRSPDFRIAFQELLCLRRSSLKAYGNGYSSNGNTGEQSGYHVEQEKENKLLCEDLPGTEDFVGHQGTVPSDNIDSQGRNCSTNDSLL
Sequence of D(2) dopamine receptor (P61169 whole entry): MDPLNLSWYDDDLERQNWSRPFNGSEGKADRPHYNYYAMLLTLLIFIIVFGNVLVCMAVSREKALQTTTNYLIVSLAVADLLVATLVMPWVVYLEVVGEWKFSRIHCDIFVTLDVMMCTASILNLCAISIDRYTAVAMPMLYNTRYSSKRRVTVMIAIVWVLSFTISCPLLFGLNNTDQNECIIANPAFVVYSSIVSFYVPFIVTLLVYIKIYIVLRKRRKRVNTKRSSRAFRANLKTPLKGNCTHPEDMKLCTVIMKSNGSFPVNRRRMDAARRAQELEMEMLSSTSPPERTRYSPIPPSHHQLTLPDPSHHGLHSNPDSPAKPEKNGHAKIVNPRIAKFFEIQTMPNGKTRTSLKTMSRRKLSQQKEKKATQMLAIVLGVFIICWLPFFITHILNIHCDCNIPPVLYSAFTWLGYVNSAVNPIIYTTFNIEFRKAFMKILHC

Take `Oc1ccc(C2CNCCc3c2cc(O)c(O)c3Cl)cc1` (stereo not given) [FENOLDOPAM]: the Blockade with Canis familiaris [1] was 100%; in the test on Canis familiaris [2], 20%. Further, the “Change in blood flow” value in the test with Canis familiaris [3] was 0.2; in the test with Canis familiaris [4], 8.

With `Oc1ccc(C[C@H]2CCCN2CCCCCCN2CCC[C@H]2Cc2ccc(O)c(O)c2)cc1O`, the values for the Blockade in the test with Canis familiaris [1] and in the test on Canis familiaris [2] were 100% and 20%, respectively. Moreover, in test [5], the “Log Ki” value is given as -6.24. Further, the Ki is 575 nM at D(1A) dopamine receptor and 8.91 nM at D(2) dopamine receptor. The “Log Ki” value in [6] and in test [7] was “inactive” each time. In addition, the “Change in blood flow” value in the test with Canis familiaris [3] amounted to 80; in the test on Canis familiaris [4] it was 9.4.

`Oc1ccc(C[C@@H]2CCCN2CCCCCCN2CCC[C@H]2Cc2ccc(O)c(O)c2)cc1O`: the Blockade is reported as 100% in the test on Canis familiaris [1] and 0% with Canis familiaris [2]. Also, in test [5], the “Log Ki” value was -6.41. In addition, the results for the Ki at D(1A) dopamine receptor and at D(2) dopamine receptor were 617 nM and 14.8 nM, respectively. Besides, the “Log Ki” value in test [6] and in test [7] was “inactive” throughout. Besides, the figures for the “Change in blood flow” value in the test with Canis familiaris [3] and in the test with Canis familiaris [4] were 0.3 and 1.2, respectively.

For `CCCCN1CCCC1Cc1ccc(O)c(O)c1` (stereo not given), the Ki on D(1A) dopamine receptor is 7.94 nM; at D(2) dopamine receptor it was 3.16 nM.

`CCCN(CCCCCCN1CCC[C@@H]1Cc1ccc(O)c(O)c1)CCc1ccc(O)c(O)c1`: the Blockade in the test on Canis familiaris [1] came to 100%; with Canis familiaris [2], 70%. For the same molecule, the Cumulative urine volume in the test with Rattus norvegicus [8] was determined as 24. Moreover, the “Decrease in blood pressure” value with Rattus norvegicus [9] is 18.6. In [5], the “Log Ki” value is recorded as -6.41. Moreover, the Ki is 18.6 nM on D(1A) dopamine receptor and 3.24 nM on D(2) dopamine receptor. In addition, the “Log Ki” value in test [6] and in [7] was “inactive” in each case. Further, the figures for the “Change in blood flow” value with Canis familiaris [3] and with Canis familiaris [4] were 382 and 6, respectively.

`NCCc1ccc(O)c(O)c1` [DOPAMINE]: the Blockade in the test on Canis familiaris [1] was found to be 100%. This molecule also showed a Cumulative urine volume in the test on Rattus norvegicus [8] of 4. In the test with Rattus norvegicus [9], the “Decrease in blood pressure” value is given as 9.4. The “Change in blood flow” value with Canis familiaris [4] is 1.

For `CCCN(CCC)CCc1ccc(O)c(O)c1`, the “Log Ki” value in test [5] is listed as -5.7. The results for the Ki at D(1A) dopamine receptor and at D(2) dopamine receptor were 4680 nM and 22.4 nM, respectively. Moreover, in the test with Canis familiaris [2], the Blockade came to 80%. Also, the “Change in blood flow” value in the test with Canis familiaris [3] was found to be 1.

`Oc1ccc(C[C@H]2CCCN2CCCCCCN2CCC[C@@H]2Cc2ccc(O)c(O)c2)cc1O`: the results for the Blockade in the test on Canis familiaris [1] and in the test with Canis familiaris [2] were 100% and 70%, respectively. This molecule also gave a Cumulative urine volume in the test with Rattus norvegicus [8] of 17. Also, the “Decrease in blood pressure” value with Rattus norvegicus [9] was 22.4. Besides, the “Log Ki” value in test [5] is given as -7.25. Moreover, the Ki at D(1A) dopamine receptor was 6.46 nM; at D(2) dopamine receptor, 6.17 nM. Further, the “Log Ki” value in test [6] and in test [7] was “inactive” throughout. The entries for the “Change in blood flow” value in the test on Canis familiaris [3] and with Canis familiaris [4] were 359 and 1.2, respectively.

One may read the Ki as the equilibrium dissociation constant of an inhibitor or competing ligand from its target. Low readings indicate tighter binding, high ones weaker binding.
